Results reported in patent US11185073B2, “Microbiocidal quinoline (thio)carboxamide derivatives” (SYNGENTA PARTICIPATIONS AG, priority 2017, dated 2021).

Experiments:
[1] = system: Botryotinia fuckeliana (Botrytis cinerea); assay: Botryotinia fuckeliana (Botrytis cinerea) / liquid culture (gray mould); type: cell-based; conditions: 72 h, growth inhibition photometrically 3-4 days after application, compared to untreated control
[2] = system: Glomerella lagenarium (Colletotrichum lagenarium); assay: Glomerella lagenarium (Colletotrichum lagenarium) / liquid culture (anthracnose); type: cell-based; conditions: Colletotrichum orbiculare, growth inhibition photometrically 3-4 days after application, compared to untreated control
Fusarium culmorum [3] = assay: microbe, parasite or virus in culture; type: cell-based; conditions: 72 h, read-out: control of Fusarium culmorum
Fusarium culmorum [4] = assay: whole plant or invertebrate; type: in vivo; conditions: in Triticum aestivum, read-out: control of Fusarium culmorum
[5] = system: Monographella nivalis (Microdochium nivale); assay: Monographella nivalis (Microdochium nivale) / liquid culture (foot rot cereals); type: cell-based; conditions: 96 h, growth inhibition photometrically 4-5 days after application, compared to untreated control
[6] = system: Magnaporthe grisea (Pyricularia oryzae); assay: microbe, parasite or virus in culture; type: cell-based; conditions: 72 h, read-out: control of Magnaporthe grisea
[7] = system: Gibberella zeae (Fusarium graminearum); assay: whole plant or invertebrate; type: in vivo; conditions: in Triticum aestivum, read-out: control of Gibberella zeae

C[C@@](COC1CCC1)(CC(F)(F)F)NC(=O)c1cnc2c(F)cccc2c1 [E.013, N-[(1S)-1-(cyclo-butoxymethyl)-3,3,3-trifluoro-1-methyl-propyl]-8-fluoro-quinoline-3-carboxamide]
≥ 80%: inhibition of growth at 20 ppm [1] | inhibition of growth at 20 ppm [2] | inhibition of growth at 20 ppm (Fusarium culmorum [3]) | pest or weed control at 200 ppm (Fusarium culmorum [4]) | inhibition of growth at 20 ppm [5]

CC(C)CC(C)(COC1CCCCC1)NC(=O)c1cnc2c(F)cccc2c1 (centres unmarked) [E.029, N-[1-(cyclohexoxy-methyl)-1,3-dimethyl-butyl]-8-fluoro-quinoline-3-carboxamide]
≥ 80%: inhibition of growth at 20 ppm [1] | inhibition of growth at 20 ppm [2] | inhibition of growth at 20 ppm (Fusarium culmorum [3]) | pest or weed control at 200 ppm (Fusarium culmorum [4]) | inhibition of growth at 20 ppm [5] | inhibition of growth at 20 ppm [6]

CC1(CC(C)(COCc2ccccc2)NC(=O)c2cnc3c(F)cccc3c2)CC1 (centres unmarked) [E.018, N-[1-(benzyloxy-methyl)-1-methyl-2-(1-methylcyclo-propyl)ethyl]-8-fluoro-quinoline-3-carboxamide]
≥ 80%: inhibition of growth at 20 ppm [1] | inhibition of growth at 20 ppm (Fusarium culmorum [3]) | inhibition of growth at 20 ppm [5] | inhibition of growth at 20 ppm [6]

CC(COC1CCC1)(CC(F)(F)F)NC(=O)c1cnc2c(F)c(F)ccc2c1 (centres unmarked) [E.008, N-[1-(cyclo-butoxymethyl)-3,3,3-trifluoro-1-methyl-propyl]-7,8-difluoro-quinoline-3-carboxamide]
≥ 80%: inhibition of growth at 20 ppm [1] | inhibition of growth at 20 ppm [2] | inhibition of growth at 20 ppm (Fusarium culmorum [3]) | pest or weed control at 200 ppm (Fusarium culmorum [4]) | pest or weed control at 200 ppm [7] | inhibition of growth at 20 ppm [5] | inhibition of growth at 20 ppm [6]

CC(COC1CCC1)(CC(F)(F)F)NC(=O)c1cnc2c(F)cccc2c1 (stereo in doubt) [E.014, N-[(1S)-1-(cyclo-butoxymethyl)-3,3,3-trifluoro-1-methyl-propyl]-8-fluoro-quinoline-3-carboxamide]
≥ 80%: inhibition of growth at 20 ppm [1] | inhibition of growth at 20 ppm [2] | inhibition of growth at 20 ppm (Fusarium culmorum [3]) | pest or weed control at 200 ppm (Fusarium culmorum [4]) | pest or weed control at 200 ppm [7]

CC(C)CC(C)(COC1CCC1)NC(=O)c1cnc2c(F)cccc2c1 (centres unmarked) [E.023, N-[1-(cyclo-butoxymethyl)-1,3-dimethyl-butyl]-8-fluoro-quinoline-3-carboxamide]
≥ 80%: inhibition of growth at 20 ppm [1] | inhibition of growth at 20 ppm [2] | inhibition of growth at 20 ppm (Fusarium culmorum [3]) | pest or weed control at 200 ppm (Fusarium culmorum [4]) | pest or weed control at 200 ppm [7] | inhibition of growth at 20 ppm [5] | inhibition of growth at 20 ppm [6]

CC(COC1(C)CCCCC1)(CC(F)(F)F)NC(=O)c1cnc2c(F)cccc2c1 (centres unmarked) [E.015, 8-fluoro-N-[3,3,3-trifluoro-1-methyl-1-[(1-methylcyclo-hexoxy)methyl]-propyl]quinoline-3-carboxamide]
≥ 80%: inhibition of growth at 20 ppm [1] | inhibition of growth at 20 ppm [2] | inhibition of growth at 20 ppm (Fusarium culmorum [3]) | inhibition of growth at 20 ppm [6]

CCC(CC)OCC(C)(CC(C)C)NC(=O)c1cnc2c(F)cccc2c1 (centres unmarked) [E.022, N-[1-(1-ethyl-propoxymethyl)-1,3-dimethyl-butyl]-8-fluoro-quinoline-3-carboxamide]
≥ 80%: inhibition of growth at 20 ppm [1] | inhibition of growth at 20 ppm [2] | inhibition of growth at 20 ppm (Fusarium culmorum [3]) | pest or weed control at 200 ppm (Fusarium culmorum [4]) | inhibition of growth at 20 ppm [5] | inhibition of growth at 20 ppm [6]

Cc1c(C(=O)NC(C)(COC2CCC2)CC(F)(F)F)cnc2c(F)cccc12 (centres unmarked) [E.007, N-[1-(cyclo-butoxymethyl)-3,3,3-trifluoro-1-methyl-propyl]-8-fluoro-4-methyl-quinoline-3-carboxamide]
≥ 80%: inhibition of growth at 20 ppm [1] | inhibition of growth at 20 ppm [2] | inhibition of growth at 20 ppm (Fusarium culmorum [3]) | pest or weed control at 200 ppm (Fusarium culmorum [4]) | pest or weed control at 200 ppm [7] | inhibition of growth at 20 ppm [5] | inhibition of growth at 20 ppm [6]

CC(C)COCC(C)(CC(C)C)NC(=O)c1cnc2c(F)cccc2c1 (centres unmarked) [E.025, 8-fluoro-N-[1-(iso-butoxymethyl)-1,3-dimethyl-butyl]-quinoline-3-carboxamide]
≥ 80%: inhibition of growth at 20 ppm [1] | inhibition of growth at 20 ppm [2] | inhibition of growth at 20 ppm (Fusarium culmorum [3]) | pest or weed control at 200 ppm (Fusarium culmorum [4]) | pest or weed control at 200 ppm [7] | inhibition of growth at 20 ppm [5] | inhibition of growth at 20 ppm [6]

Cc1nc2c(F)cccc2cc1C(=O)NC(C)(COC1CCC1)CC(F)(F)F (centres unmarked) [E.009, N-[1-(cyclo-butoxymethyl)-3,3,3-trifluoro-1-methyl-propyl]-8-fluoro-2-methyl-qiuinoline-3-carboxamide]
≥ 80%: inhibition of growth at 20 ppm [1] | inhibition of growth at 20 ppm [2] | inhibition of growth at 20 ppm (Fusarium culmorum [3]) | inhibition of growth at 20 ppm [6]

CC(C)(C)CC(C)(COCC1CC1)NC(=O)c1cnc2c(F)cccc2c1 (centres unmarked) [E.006, N-[1-(cyclo-propylmethoxy-methyl)-1,3,3-trimethylbutyl]-8-fluoro-quinoline-3-carboxamide]
≥ 80%: inhibition of growth at 20 ppm [1] | inhibition of growth at 20 ppm [2] | inhibition of growth at 20 ppm (Fusarium culmorum [3]) | pest or weed control at 200 ppm (Fusarium culmorum [4]) | inhibition of growth at 20 ppm [5] | inhibition of growth at 20 ppm [6]

CC(C)CC(C)(COc1ccccc1)NC(=O)c1cnc2c(F)cccc2c1 (centres unmarked) [E.028, N-[1,3-dimethyl-1-(phenoxymethyl)-butyl]-8-fluoro-quinoline-3-carboxamide]
≥ 80%: inhibition of growth at 20 ppm [1] | inhibition of growth at 20 ppm [2] | inhibition of growth at 20 ppm (Fusarium culmorum [3]) | pest or weed control at 200 ppm (Fusarium culmorum [4]) | inhibition of growth at 20 ppm [5]

CC(COC1(C)CCCC1)(CC(F)(F)F)NC(=O)c1cnc2c(F)cccc2c1 (centres unmarked) [E.010]
≥ 80%: inhibition of growth at 20 ppm [1] | inhibition of growth at 20 ppm [2] | inhibition of growth at 20 ppm (Fusarium culmorum [3]) | pest or weed control at 200 ppm (Fusarium culmorum [4]) | pest or weed control at 200 ppm [7] | inhibition of growth at 20 ppm [5]

CC(C)CC(C)(COC(C)C)NC(=O)c1cnc2c(F)cccc2c1 (centres unmarked) [E.024, 8-fluoro-N-[1-(iso-propoxymethyl)-1,3-dimethyl-butyl]quinoline-3-carboxamide]
≥ 80%: inhibition of growth at 20 ppm [1] | inhibition of growth at 20 ppm [2] | inhibition of growth at 20 ppm (Fusarium culmorum [3]) | pest or weed control at 200 ppm (Fusarium culmorum [4]) | pest or weed control at 200 ppm [7] | inhibition of growth at 20 ppm [6]

CC(C)CC(C)(COC1CCCC1)NC(=O)c1cnc2c(F)cccc2c1 (centres unmarked) [E.031, N-[1-(cyclopentoxy-methyl)-1,3-dimethyl-butyl]-8-fluoro-quinoline-3-carboxamide]
≥ 80%: inhibition of growth at 20 ppm [1] | inhibition of growth at 20 ppm [2] | inhibition of growth at 20 ppm (Fusarium culmorum [3]) | pest or weed control at 200 ppm (Fusarium culmorum [4]) | inhibition of growth at 20 ppm [5] | inhibition of growth at 20 ppm [6]

CCCCCCCCC(C)(COC)NC(=O)c1cnc2c(F)cccc2c1 (centres unmarked) [E.033, 8-fluoro-N-[1-(methoxymethyl)-1-methyl-nonyl]-quinoline-3-carboxamide]
≥ 80%: inhibition of growth at 20 ppm [1] | inhibition of growth at 20 ppm [2] | inhibition of growth at 20 ppm (Fusarium culmorum [3]) | pest or weed control at 200 ppm [7] | inhibition of growth at 20 ppm [5]

CC(COC1CCC1)(CC(F)(F)F)NC(=O)c1cnc2c(F)cccc2c1 (centres unmarked) [E.021, N-[1-(cyclobutoxy-methyl)-3,3,3-trifluoro-1-methyl-propyl]-8-fluoro-quinoline-3-carboxamide]
≥ 80%: inhibition of growth at 20 ppm [1] | inhibition of growth at 20 ppm [2] | inhibition of growth at 20 ppm (Fusarium culmorum [3]) | inhibition of growth at 20 ppm [6]

CC(COC1CCCCC1)(CC(F)(F)F)NC(=O)c1cnc2c(F)cccc2c1 (stereo in doubt) [E.017, N-[(1S)-1-(cyclo-hexoxymethyl)-3,3,3-trifluoro-1-methyl-propyl]-8-fluoro-quinoline-3-carboxamide]
≥ 80%: pest or weed control at 200 ppm [7]

Cc1cccc2cc(C(=O)NC(C)(COC3CCC3)CC(F)(F)F)cnc12 (centres unmarked) [E.011]
≥ 80%: inhibition of growth at 20 ppm [1] | inhibition of growth at 20 ppm [2] | inhibition of growth at 20 ppm (Fusarium culmorum [3]) | pest or weed control at 200 ppm (Fusarium culmorum [4]) | inhibition of growth at 20 ppm [5] | inhibition of growth at 20 ppm [6]
